The test system of data set [1] is L540cy, HL. Briefly: In vitro assays - tubulysin free drugs, CellTiter-Glo growth inhibition. The class given is cell-based. On the procedure:
(§1) In vitro assays. Cells cultured in log-phase growth were seeded for 24 h in 96-well plates containing 150 μL RPMI 1640 supplemented with 20% FBS. Serial dilutions of antibody-drug conjugates in cell culture media were prepared at 4× working concentrations; 50 μL of each dilution was added to the 96-well plates. Following addition of ADC, cells were incubated with test articles for 4 d at 37° C. After 96 h, growth inhibition was assessed by CellTiter-Glo® (Promega, Madison, WI) and luminescence was measured on a plate reader. The IC50 value, determined in triplicate, is defined here as the concentration that results in a 50% reduction in cell growth relative to untreated controls.
(§2) In vitro assays—tubulysin free drugs. Cells were treated for 96 hours with tubulysin ether analogs (40-42) or tubulysin M (7), then assessed for viability as described in the methods.
(§3) The tubulysin ester analogs (133-137) and unsaturated ether analogs (176-179) were tested in vitro for potency relative to tubulysin M (7), following a 96 hour exposure. As shown by IC50 values (nM) of Table 2, Tubulysin esters 133-136 performed comparably to tubulysin M, with similar potencies across of the cell lines.
(§4) A series of analogues of the ethyl ether tubulysin compound TubOEt (41) were synthesized on solid phase lanterns that maintain the ethyl ether substitution, while either varying the residue at the Ile position (203-215) or the Mep position (216-221). Following cleavage from the solid phase, the analogues were obtained in >85% purity and tested without further purification. The compounds were tested in vitro for potency relative to a sample of TubOEt synthesized in parallel on a lantern (41-lantern), following a 96 hour exposure, with IC5O values expressed in nM (Table 3). While in many cases an attenuation in activity was observed relative to 41-lantern, some well-tolerated substitutions were found. […] While this stereochemical preference is not observed when Ile is replaced with O-methyl threonine (207) or O-methyl allothreonine (206), bulkier substituents led to a greater differentiation. […] Replacement of the Mep residue was generally less-well tolerated.

The subject of data set [2] is HL60, AML. The data set is described as above. The class given is cell-based. On the procedure: as §1, §2, §3, §4
For data set [3], the system named is HL60/RV, MDR + AML. The data set is described as above. The data set is classed as cell-based. Here is the method: as §1, §2, §3, §4
For data set [4], the system named is Karpas299, ALCL. Described as above. The conditions noted are these: free drug. The class given is cell-based. On the procedure:
as §1, §2, §3

Data set [5] relates to L428, MDR + HL. Described as above. Particulars: free drug. The class given is cell-based. Here is the method: as §1, §2, §3
The test system of data set [6] is L540cy, HL. Particulars: Table 4; cAC10 ADCs DAR 8, 96 h. On the procedure: (§5) In vitro assays. Cells cultured in log-phase growth were seeded for 24 h in 96-well plates containing 150 μL RPMI 1640 supplemented with 20% FBS. Serial dilutions of antibody-drug conjugates in cell culture media were prepared at 4× working concentrations; 50 μL of each dilution was added to the 96-well plates. […] After 96 h, growth inhibition was assessed by CellTiter-Glo® (Promega, Madison, WI) and luminescence was measured on a plate reader.
(§6) In vitro assays—tubulysin ADCs. ADCs were prepared by t Ell reduction of interchain disulfides to reveal 8-conjugatable cysteines/antibody that were alkylated through Michael addition with the maleimide-containing Drug Linker compounds. […] conjugates hearing quaternized tubulysin ethers with and without a PEG12 side-chain were compared to their tubulysin M analogs.
(§7) Several hydrophilic linker constructs incorporating quaternized tubulysin M were prepared and evaluated in vitro; the results are shown in Table 5. The data (IC50 values in ng/mL) indicate that Conjugates prepared from Drug Linker compounds having quaternized tubulysin M linked via a hydrophilic ValGlu dipeptide with (95) or without (91) a PEG12 side chain, or linked via a hydrophilic glucuronide (82) provide ADCs that are equipotent to the ValAla comparator (15).

Data set [7] relates to L428, MDR + HL. The conditions noted are these: Table 4; cAC10 ADCs DAR 8, 96 h. Here is the method:
as §5, §6, §7

Data set [8] relates to DEL/BVR, MDR + ALCL. The conditions noted are these: Table 4; cAC10 ADCs DAR 8, 96 h. On the procedure: as §5, §6, §7
Data set [9] concerns HepG2, L540cy, Ramos, U266, HL60, HL60/RV cell lines. Briefly: In vitro assays - TubOEt analogues, statements across the cell line panel. The class given is cell-based. Particulars: Table 3 cell lines, 96 hour exposure. Here is the method:
as §1, §4

In data set [10] the test system is HepG2, HCC. As to the kind of experiment: In vitro assays - TubOEt analogues, CellTiter-Glo growth inhibition. The conditions noted are these: Homo sapiens, Table 3, lantern-made analogues >85% purity, 96 hour exposure. The class given is cell-based. On the procedure:
as §1, §4
Background: Cellular ATP, detected with luciferase, serves as a proxy for viable cell number.

Data set [11] deals with Ramos, NHL. The description is as above. The data set is classed as cell-based. Particulars: Homo sapiens, Table 3, lantern-made analogues >85% purity, 96 hour exposure. On the procedure:
as §1, §4

Data set [12] concerns U266 MM. Described as above. The class given is cell-based. Particulars: Homo sapiens, U-266; Table 3; lantern-made analogues >85% purity, 96 hour exposure. On the procedure:
as §1, §4

Setting [13] is: Homo sapiens, HL-60, 96 h, Table 1 (examples), free drug, 96 hours.
[14] abbreviates: Table 1 (examples), free drug, 96 hours.
The mark [15] stands for this setting: L540cy, 96 h, Table 2, free drug, 96 hour exposure.
Where [16] appears, read: Homo sapiens, HL-60, 96 h, Table 2, free drug, 96 hour exposure.
The mark [17] stands for this setting: Homo sapiens, KARPAS-299, 96 h, Table 2, 96 hour exposure.
[18] abbreviates: Homo sapiens, L-428, 96 h, Table 2, 96 hour exposure.
[19] abbreviates: L540cy, 96 h, Table 3, lantern-made analogues >85% purity, 96 hour exposure.
Setting [20] is: Homo sapiens, HL-60, 96 h, Table 3, lantern-made analogues >85% purity, 96 hour exposure.

As a reminder, the IC50 is the concentration that inhibits the measured activity by half. As to `CC[C@H](C)[C@H](NC(=O)[C@H]1CCCCN1C)C(=O)N(C)[C@H](C[C@@H](OC)c1nc(C(=O)N[C@@H](Cc2ccccc2)C[C@H](C)C(=O)O)cs1)C(C)C` [Compound 40, (2S,4R)-4-(2-((1R,3R)-3-((2S,3S)—N,3-dimethyl-2-((R)-1-methylpiperidine-2-carboxamido)pentanamido)-1-methoxy-4-methylpentyl)thiazole-4-carboxamido)-2-methyl-5-phenylpentanoic acid], the concentration for half-maximal inhibition (IC50) in data set [1] (L540cy, 96 h, Table 1 (examples), free drug) was determined as 0.12 nM; in data set [2] (setting [13]), 0.13 nM; in data set [3] (setting [13]) it was 29 nM; in data set [4] (Homo sapiens, KARPAS-299, 96 h, Table 1 (examples), 96 hours), 0.19 nM; in [5] (Homo sapiens, L-428, 96 h, Table 1 (examples), 96 hours), 0.5 nM.

`CCCO[C@H](C[C@H](C(C)C)N(C)C(=O)[C@@H](NC(=O)[C@H]1CCCCN1C)[C@@H](C)CC)c1nc(C(=O)N[C@@H](Cc2ccccc2)C[C@H](C)C(=O)O)cs1` [Compound 42, (2S,4R)-4-(2-((1R,3R)-3-((2S,3S)—N,3-dimethyl-2-((R)-1-methylpiperidine-2-carboxamido)pentanamido)-4-methyl-1-propoxypentyl)thiazole-4-carboxamido)-2-methyl-5-phenylpentanoic add]: the IC50 in data set [1] (setting [14]) was found to be 0.13 nM; in data set [2] (setting [14]) it was 0.17 nM; in [3] (setting [14]), 14 nM; in data set [4] (Table 1 (examples), 96 hours), 0.15 nM; in [5] (Table 1 (examples), 96 hours), 0.4 nM.

Take `CCCO[C@H](C[C@H](C(C)C)N(C)C(=O)[C@@H](NC(=O)[C@H]1CCCC[N+]1(C)Cc1ccc(O[C@@H]2O[C@H](C(=O)O)[C@@H](O)[C@H](O)[C@H]2O)c(NC(=O)CCNC(=O)[C@H](CN)N2C(=O)C=CC2=O)c1)[C@@H](C)CC)c1nc(C(=O)N[C@@H](Cc2ccccc2)C[C@H](C)C(=O)O)cs1` (some centres unmarked) [Compound 58]: the “IC50, L540cy, HL” value in data set [6] came out at 0.006 µg/mL. Further, the “IC50, L428, MDR + HL” value in [7] came to 0.117 µg/mL. The “IC50, DEL/BVR, MDR + ALCL” value in data set [8] was found to be 0.01 µg/mL.

Turning to `CCC(=O)O[C@H](C[C@H](C(C)C)N(C)C(=O)[C@@H](NC(=O)[C@H]1CCCCN1C)[C@@H](C)CC)c1nc(C(=O)N[C@@H](Cc2ccccc2)C[C@H](C)C(=O)O)cs1` [Compound 133, (2S,4R)-4-(2-((1R,3R)-3-((2S,3S)—N,3-dimethyl-2-((R)-1-methylpiperidine-2-carboxamido)pentanamido)-4-methyl-1-(propionyloxy)pentyl)thiazole-4-carboxamido)-2-methyl-5-phenylpentanoic acid], the IC50 in data set [1] (setting [15]) amounted to 0.06 nM; in [2] (setting [16]) it was 0.1 nM; in [3] (setting [16]) it was 1 nM; in data set [4] (setting [17]), 0.02 nM; in data set [5] (setting [18]), 0.04 nM.

As to `CCCC(=O)O[C@H](C[C@H](C(C)C)N(C)C(=O)[C@@H](NC(=O)[C@H]1CCCCN1C)[C@@H](C)CC)c1nc(C(=O)N[C@@H](Cc2ccccc2)C[C@H](C)C(=O)O)cs1` [Compound 134, (2S,4R)-4-(2-((1R,3R)-1-(butyryloxy)-3-((2S,3S)—N,3-dimethyl-2-((R)-1-methylpiperidine-2-carboxamido)pentanamido)-4-methylpentyl)thiazole-4-carboxamido)-2-methyl-5-phenylpentanoic acid], the IC50 was found to be 0.04 nM in data set [1] (setting [15]); 0.08 nM in [2] (setting [16]); 3 nM in data set [3] (setting [16]); 0.011 nM in data set [4] (setting [17]); 0.05 nM in data set [5] (setting [18]).

As for `CC[C@H](C)[C@H](NC(=O)[C@H]1CCCCN1C)C(=O)N(C)[C@H](C[C@@H](OC(=O)C(C)C)c1nc(C(=O)N[C@@H](Cc2ccccc2)C[C@H](C)C(=O)O)cs1)C(C)C` [Compound 135, (2S,4R)-4-(2-((1R,3R)-3-((2S,3S)—N,3-dimethyl-2-((R)-1-methylpiperidine-2-carboxamido)pentanamido)-1-(isobutyryloxy)-4-methylpentyl)thiazole-4-carboxamido)-2-methyl-5-phenylpentanoic acid], the IC50 in data set [1] (setting [15]) was 0.1 nM; in data set [2] (setting [16]), 0.1 nM; in [3] (setting [16]), 6 nM; in data set [4] (setting [17]) it was 0.02 nM; in data set [5] (setting [18]), 0.12 nM.

Turning to `CC[C@H](C)[C@H](NC(=O)[C@H]1CCCCN1C)C(=O)N(C)[C@H](C[C@@H](OC(=O)CC(C)C)c1nc(C(=O)N[C@@H](Cc2ccccc2)C[C@H](C)C(=O)O)cs1)C(C)C` [Compound 136, (2S,4R)-4-(2-((1R,3R)-3-((2S,3S)—N,3-dimethyl-2-((R)-1-methylpiperidine-2-carboxamido)pentanamido)-4-methyl-1-((3-methylbutanoyl)oxy)pentyl)thiazole-4-carboxamido)-2-methyl-5-phenylpentanoic acid], the IC50 worked out at 0.06 nM in [1] (setting [15]); 0.04 nM in [2] (setting [16]); 6 nM in [3] (setting [16]); 0.02 nM in data set [4] (setting [17]); 0.11 nM in [5] (setting [18]).

For the compound `CCO[C@H](C[C@H](C(C)C)N(C)C(=O)[C@@H](NC(=O)[C@H]1CCCCN1C)C1CCCC1)c1nc(C(=O)N[C@@H](Cc2ccccc2)C[C@H](C)C(=O)O)cs1` [Compound 204, (2S,4R)-4-(2-((1R,3R)-3-((S)-2-cyclopentyl-N-methyl-2-((R)-1-methylpiperidine-2-carboxamido)acetamido)-1-ethoxy-4-methylpentyl)thiazole-4-carboxamido)-2-methyl-5-phenylpentanoic acid], the IC50 in [1] (setting [19]) worked out at 0.4 nM; in data set [2] (setting [20]), 1 nM; in data set [3] (setting [20]), 40 nM; in [10], 2 nM; in data set [11], 0.2 nM; in [12], 0.1 nM. Besides, the “potency / cytotoxicity of TubOEt analogues, in words” value in data set [9] is given as “potent”.

Regarding `CCO[C@H](C[C@H](C(C)C)N(C)C(=O)[C@@H](NC(=O)[C@H]1CCCCN1C)C1CCCCC1)c1nc(C(=O)N[C@@H](Cc2ccccc2)C[C@H](C)C(=O)O)cs1` [Compound 205, (2S,4R)-4-(2-((1R,3R)-3-((S)-2-cyclohexyl-N-methyl-2-((R)-1-methylpiperidine-2-carboxamido)acetamido)-1-ethoxy-4-methylpentyl)thiazole-4-carboxamido)-2-methyl-5-phenylpentanoic acid], the 50% inhibitory concentration (IC50) was determined as 1 nM in data set [1] (setting [19]); 2 nM in data set [2] (setting [20]); 177 nM in [3] (setting [20]); 7 nM in data set [10]; 0.5 nM in data set [11]; 0.5 nM in data set [12]. For the same compound, the “potency / cytotoxicity of TubOEt analogues, in words” value in data set [9] is recorded as “potent”.

Source of the values: patent publication US11793880B2, “Conjugates of quaternized tubulysin compounds” (Seagen Inc., priority 2015, dated 2023).
